Laboratory results: patent US20070155746A1, “NOVEL SUBSTITUTED PYRIDINYLOXY AND PYRIMIDINYLOXY AMIDES USEFUL AS INHIBITORS OF PROTEIN KINASES” (KALYPSYS, INC., priority 2005, published 2007)

Columns and labels:
Assay type in all cases: biochemical
VEGFR2 kinase = biological target: T1, VEGFR2 kinase (Homo sapiens, UniProt P35968); assay: In vitro VEGFR2 kinase assay
T1 construct: purchased Invitrogen Inc PV3660
Protocol: (§1) In Vitro VEGFR2 and PDGFRP Kinase Assays
(§2) 2.5 μl of ADP Quest assay buffer (DiscoverX Inc., cat. #90-0071) containing 20 ng VEGFR2 kinase (Invitrogen Inc, cat. #PV3660) or 25 ng PDGFRβ kinase (Invitrogen Inc., cat. #P3082) is dispensed to wells of a 1536 multi-well, black solid plate. 60 nl of 100× concentration of test compound in DMSO is dispensed to the well by passive pin transfer and incubated for 10 minutes at room temperature (approx. 22° C.). 2.5 μl of ADP Quest assay buffer containing 0.25 μg of poly Glu:Tyr (4:1) substrate peptide (Upstate Inc., cat. #12-440) and 60 μM ATP is then dispensed and the kinase reaction allowed to incubate at 30° C. for 2 hours. The assay plates are sealed and maintained in a humidified environment. After the 2 hour incubation, 2 μl of ADP Quest assay reagent A, followed by 2 μl of assay reagent B, is added. After an additional 30 minute incubation at room temperature, fluorescence intensity is measured on a Molecular Devices Aquest multi-mode plate reader or other suitable plate reader (fluorescence excitation filter: 530/25 [Peak(nm)/FWHM passband(nm)]; dichroic beamsplitter: 561 nm longpass; fluorescence emission filter: 580/10 [Peak(nm)/FWHM passband(nm)]. The assay measures the conversion of a non-fluoresecent molecule to fluorescent resorufin, which correlates with kinase activity. Negative control activity is measured with DMSO lacking any test compound. The positive control is [N-(3-trifluoromethyl-4-chlorophenyl)-N′-(4-(2-methylcarbamoyl-pyridin-4-yl)oxyphenyl)urea], aka Bay 43-9006. Efficacy is measured as a percentage of positive control activity.

PDGFRβ kinase = biological target: T2, PDGFRβ kinase (Homo sapiens, UniProt P09619); assay: In vitro PDGFRβ kinase assay
T2 construct: purchased Invitrogen Inc. P3082
Protocol: as §1, §2

[1] = biological target: T3, human B-Raf protein kinase (Homo sapiens, UniProt P15056); assay: In vitro B-Raf/Mek1 composite kinase assay
T3 construct: GST (N); purchased Upstate Inc. 14-530 (B-Raf); 14-420 (Mek1)
Protocol: In Vitro B-Raf/Mek1 Composite Kinase Assay
2.5 μl of B-Raf kinase buffer (20 mM MOPS [pH 7.2], 25 mM sodium glycerophosphate, 2 mM EGTA [pH 8.0], 1 mM sodium orthovanadate, 1 mM dithiothreitol, 10 mM MgCl2, 0.03% Brij-35, 0.3 mg/ml bovine serum albumin) containing lng of recombinant, N-terminal GST-tagged human B-Raf protein kinase (Δ1-415, Upstate Inc., cat. #14-530) is dispensed to wells of a 1536 multi-well white solid plate. 60 nl of 100× concentration of test compound in DMSO is dispensed to the well by passive pin transfer and incubated for 15 minutes at room temperature (approx. 22° C.). […] The assay plates are sealed and maintained in a humidified environment. After 2 hours, 2.5 μl of PKLight protein kinase assay reagent (Cambrex, cat. #LT07-501) is dispensed. After an additional 5 minute incubation at room temperature, luminescence activity is measured on a Molecular Devices Analyst multi-mode plate reader or other suitable plate reader. Kinase inhibition results in less ATP depletion, and therefore increased luminescence signal. Negative control activity is measured with DMSO lacking any test compound. The positive control is [N-(3-trifluoromethyl-4-chlorophenyl)-N′-(4-(2-methylcarbamoyl-pyridin-4-yl)oxyphenyl)urea], aka Bay 43-9006. Efficacy is measured as a percentage of positive control activity.

T2 sequence (P09619 33-1106): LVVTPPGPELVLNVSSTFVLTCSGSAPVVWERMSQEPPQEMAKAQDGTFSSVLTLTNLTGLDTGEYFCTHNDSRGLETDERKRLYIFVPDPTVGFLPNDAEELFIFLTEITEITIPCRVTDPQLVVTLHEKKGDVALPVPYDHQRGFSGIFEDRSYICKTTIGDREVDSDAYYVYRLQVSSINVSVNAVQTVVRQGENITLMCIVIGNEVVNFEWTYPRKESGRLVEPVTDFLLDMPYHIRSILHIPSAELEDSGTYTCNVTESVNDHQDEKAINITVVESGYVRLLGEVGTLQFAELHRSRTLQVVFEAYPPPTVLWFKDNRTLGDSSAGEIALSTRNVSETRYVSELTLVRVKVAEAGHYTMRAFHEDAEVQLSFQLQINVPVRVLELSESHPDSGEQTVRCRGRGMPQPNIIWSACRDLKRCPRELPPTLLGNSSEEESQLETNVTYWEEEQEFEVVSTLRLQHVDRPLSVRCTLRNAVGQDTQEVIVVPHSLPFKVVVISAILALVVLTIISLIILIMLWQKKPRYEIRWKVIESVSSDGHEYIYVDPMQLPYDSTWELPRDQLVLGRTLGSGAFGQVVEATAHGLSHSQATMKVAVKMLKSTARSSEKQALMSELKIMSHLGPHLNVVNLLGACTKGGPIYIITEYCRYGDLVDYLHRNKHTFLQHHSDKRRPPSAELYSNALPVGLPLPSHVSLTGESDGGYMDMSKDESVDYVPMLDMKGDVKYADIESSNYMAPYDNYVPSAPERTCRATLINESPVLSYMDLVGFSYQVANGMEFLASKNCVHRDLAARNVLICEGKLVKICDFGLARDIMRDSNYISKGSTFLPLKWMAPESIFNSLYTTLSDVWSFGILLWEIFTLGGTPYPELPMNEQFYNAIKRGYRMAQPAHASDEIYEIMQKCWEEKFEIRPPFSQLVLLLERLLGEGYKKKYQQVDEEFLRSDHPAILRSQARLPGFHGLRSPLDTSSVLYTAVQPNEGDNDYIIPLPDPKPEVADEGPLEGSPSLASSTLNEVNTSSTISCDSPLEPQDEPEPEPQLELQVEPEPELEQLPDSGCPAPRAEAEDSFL
T3 sequence (P15056 416-766): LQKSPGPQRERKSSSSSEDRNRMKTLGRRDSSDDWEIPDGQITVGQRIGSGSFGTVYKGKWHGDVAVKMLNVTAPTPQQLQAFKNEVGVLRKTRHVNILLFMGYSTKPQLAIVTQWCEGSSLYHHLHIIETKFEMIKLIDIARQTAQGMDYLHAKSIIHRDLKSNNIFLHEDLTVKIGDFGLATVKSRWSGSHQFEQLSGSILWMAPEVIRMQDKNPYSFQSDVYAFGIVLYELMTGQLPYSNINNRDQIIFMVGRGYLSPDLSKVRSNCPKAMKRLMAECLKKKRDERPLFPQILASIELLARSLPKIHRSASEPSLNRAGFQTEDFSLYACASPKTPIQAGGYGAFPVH
T1 sequence (P35968 20-1356): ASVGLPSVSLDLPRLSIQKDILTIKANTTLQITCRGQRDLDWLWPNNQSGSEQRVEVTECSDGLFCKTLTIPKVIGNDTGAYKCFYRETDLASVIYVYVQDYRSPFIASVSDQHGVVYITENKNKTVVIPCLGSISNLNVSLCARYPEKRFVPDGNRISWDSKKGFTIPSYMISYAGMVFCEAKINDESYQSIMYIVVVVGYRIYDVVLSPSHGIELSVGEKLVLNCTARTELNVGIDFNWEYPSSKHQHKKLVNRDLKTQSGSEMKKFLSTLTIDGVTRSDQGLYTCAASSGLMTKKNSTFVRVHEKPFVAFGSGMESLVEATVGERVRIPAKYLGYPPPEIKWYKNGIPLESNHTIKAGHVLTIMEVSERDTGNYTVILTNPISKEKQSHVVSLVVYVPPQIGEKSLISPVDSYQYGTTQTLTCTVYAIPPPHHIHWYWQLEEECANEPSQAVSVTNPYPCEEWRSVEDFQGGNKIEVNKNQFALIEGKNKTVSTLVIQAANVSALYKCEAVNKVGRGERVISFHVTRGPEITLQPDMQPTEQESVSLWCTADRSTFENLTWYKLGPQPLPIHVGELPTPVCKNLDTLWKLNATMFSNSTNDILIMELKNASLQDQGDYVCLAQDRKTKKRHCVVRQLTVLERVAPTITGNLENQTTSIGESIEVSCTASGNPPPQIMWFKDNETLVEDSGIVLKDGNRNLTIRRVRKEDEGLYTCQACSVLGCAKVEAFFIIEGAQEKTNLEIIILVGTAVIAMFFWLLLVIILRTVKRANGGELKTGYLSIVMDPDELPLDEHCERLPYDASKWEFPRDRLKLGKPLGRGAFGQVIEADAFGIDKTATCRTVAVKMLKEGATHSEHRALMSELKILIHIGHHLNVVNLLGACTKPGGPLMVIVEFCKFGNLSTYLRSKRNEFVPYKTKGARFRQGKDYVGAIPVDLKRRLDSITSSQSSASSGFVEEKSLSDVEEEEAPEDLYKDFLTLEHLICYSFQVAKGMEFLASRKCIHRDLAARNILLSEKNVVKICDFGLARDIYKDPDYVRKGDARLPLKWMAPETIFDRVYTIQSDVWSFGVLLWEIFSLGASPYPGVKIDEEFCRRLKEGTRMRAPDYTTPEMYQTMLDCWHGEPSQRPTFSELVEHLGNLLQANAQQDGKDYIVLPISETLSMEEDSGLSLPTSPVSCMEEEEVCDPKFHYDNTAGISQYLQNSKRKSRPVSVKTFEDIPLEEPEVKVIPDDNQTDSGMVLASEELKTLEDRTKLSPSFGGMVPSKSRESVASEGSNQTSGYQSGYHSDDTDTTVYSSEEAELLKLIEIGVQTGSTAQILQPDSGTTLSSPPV

Row | SMILES | IC50 (VEGFR2 kinase) [µM] | IC50 (PDGFRβ kinase) [µM] | IC50 [1] [µM]
1 | Cn1cc(-c2cc(Oc3cccc(NC(=O)c4ccccc4Oc4ccccc4)c3)ccn2)cn1 [Example 54, N-(3-(2-(1-Methyl-1H-pyrazol-4-yl)pyridin-4-yloxy)phenyl)-2-phenoxybenzamide] | > 10 | ≤ 10 | ≤ 10
2 | Cn1cc(-c2cc(Oc3cccc(NC(=O)c4cccc(Oc5ccccc5)c4)c3)ccn2)cn1 [Example 55, N-(3-(2-(1-Methyl-1H-pyrazol-4-yl)pyridin-4-yloxy)phenyl)-3-phenoxybenzamide] | ≤ 10 | > 10 | > 10
3 | Cn1cc(-c2cc(Oc3cccc(NC(=O)c4ccc(Oc5ccccc5)cc4)c3)ccn2)cn1 [Example 56, N-(3-(2-(1-Methyl-1H-pyrazol-4-yl)pyridin-4-yloxy)phenyl)-4-phenoxybenzamide] | ≤ 10 | > 10 | ≤ 10
4 | Cn1cc(-c2cc(Oc3cccc(NC(=O)c4ccccc4-n4cccc4)c3)ccn2)cn1 [Example 57, N-(3-(2-(1-Methyl-1H-pyrazol-4-yl)pyridin-4-yloxy)phenyl)-2-(1H-pyrrol-1-yl)benzamide] | ≤ 10 | ≤ 10 | ≤ 10
5 | Cn1cc(-c2cc(Oc3cccc(NC(=O)c4cccc(-n5cccc5)c4)c3)ccn2)cn1 [Example 58, N-(3-(2-(1-Methyl-1H-pyrazol-4-yl)pyridin-4-yloxy)phenyl)-3-(1H-pyrrol-1-yl)benzamide] | > 10 | > 10 | > 10
6 | Cn1cc(-c2cc(Oc3cccc(NC(=O)c4ccc(-n5cccc5)cc4)c3)ccn2)cn1 [Example 59, N-(3-(2-(1-Methyl-1H-pyrazol-4-yl)pyridin-4-yloxy)phenyl)-4-(1H-pyrrol-1-yl)benzamide] | > 10 | > 10 | ≤ 10
7 | Cn1cc(-c2cc(Oc3cccc(NC(=O)c4ccc(-n5ccnc5)cc4)c3)ccn2)cn1 [Example 60, 4-(1H-Imidazol-1-yl)-N-(3-(2-(1-methyl-1H-pyrazol-4-yl)pyridin-4-yloxy)phenyl)benzamide] | > 10 | > 10 | ≤ 10
8 | Cn1cc(-c2cc(Oc3cccc(NC(=O)c4ccc5c(c4)OCO5)c3)ccn2)cn1 [Example 61, N-(3-(2-(1-Methyl-1H-pyrazol-4-yl)pyridin-4-yloxy)phenyl)benzo[d][1,3]dioxole-5-carboxamide] | > 10 | > 10 | ≤ 10
9 | Cn1cc(-c2cc(Oc3cccc(NC(=O)c4ccc5c(c4)OC(F)(F)O5)c3)ccn2)cn1 [Example 62, 2,2-Difluoro-N-(3-(2-(1-methyl-1H-pyrazol-4-yl)pyridin-4-yloxy)phenyl)benzo[d][1,3]dioxole-5-carboxamide] | > 10 | > 10 | > 10
10 | Cn1cc(-c2cc(Oc3cccc(NC(=O)c4ccc5c(c4)C(=O)OC5=O)c3)ccn2)cn1 [Example 63, N-(3-(2-(1-Methyl-1H-pyrazol-4-yl)pyridin-4-yloxy)phenyl)-1,3-dioxo-1,3-dihydroisobenzofuran-5-carboxamide] | > 10 | ≤ 10 | ≤ 10
11 | Cn1cc(-c2cc(Oc3cccc(NC(=O)c4ccc5[nH]cnc5c4)c3)ccn2)cn1 [Example 64, N-(3-(2-(1-Methyl-1H-pyrazol-4-yl)pyridin-4-yloxy)phenyl)-1H-benzo[d]imidazole-5-carboxamide] | ≤ 10 | > 10 | ≤ 10
12 | Cn1cc(-c2cc(Oc3cccc(NC(=O)c4ccc5[nH]nnc5c4)c3)ccn2)cn1 [Example 65, N-(3-(2-(1-Methyl-1H-pyrazol-4-yl)pyridin-4-yloxy)phenyl)-1H-benzo[d][1,2,3]triazole-5-carboxamide] | ≤ 10 | > 10 | ≤ 10
13 | Cn1cc(-c2cc(Oc3cccc(NC(=O)c4ccc5occc5c4)c3)ccn2)cn1 [Example 66, N-(3-(2-(1-Methyl-1H-pyrazol-4-yl)pyridin-4-yloxy)phenyl)benzofuran-5-carboxamide] | > 10 | > 10 | > 10
